Results reported in the NIST ThermoML archive (doi:10.1021/acs.jced.6b00350).
Several values for one entry are separate records, joined by “and”; a condition that tells them apart may be missing. Equal entries are not always repeated.

Conditions: Liquid, Hot wire method

FC(F)CC(F)(F)F [1,1,1,3,3-pentafluoropropane]
Conditions | thermal conductivity
222.11 K, 10047 kPa | 0.1156 W/m/K
222.11 K, 15756 kPa | 0.117 W/m/K
222.12 K, 15761 kPa | 0.1169 W/m/K
222.12 K, 21261 kPa | 0.1184 W/m/K
222.12 K, 21267 kPa | 0.1186 W/m/K
222.13 K, 27470 kPa | 0.1201 W/m/K
222.13 K, 27478 kPa | 0.1202 W/m/K
222.13 K, 33686 kPa | 0.1212 W/m/K
222.16 K, 33712 kPa | 0.1215 W/m/K
222.37 K, 39767 kPa | 0.1235 W/m/K
222.37 K, 47190 kPa | 0.1251 W/m/K
222.38 K, 39761 kPa | 0.1235 W/m/K
222.38 K, 47197 kPa | 0.125 W/m/K
222.38 K, 54316 kPa | 0.1267 W/m/K
222.38 K, 54318 kPa | 0.1267 W/m/K
222.38 K, 61389 kPa | 0.1284 W/m/K
222.38 K, 67942 kPa | 0.1297 W/m/K
222.39 K, 61385 kPa | 0.1283 W/m/K
222.39 K, 67938 kPa | 0.1298 W/m/K
222.5 K, 255 kPa | 0.1121 W/m/K
222.5 K, 4863 kPa | 0.1134 W/m/K
222.5 K, 4873 kPa | 0.1134 W/m/K
222.51 K, 9999 kPa | 0.1152 W/m/K
222.51 K, 10021 kPa | 0.1152 W/m/K
222.51 K, 15761 kPa | 0.1166 W/m/K
222.51 K, 15763 kPa | 0.1166 W/m/K
222.51 K, 21262 kPa | 0.1182 W/m/K
222.51 K, 21266 kPa | 0.1185 W/m/K
222.51 K, 27487 kPa | 0.12 W/m/K
222.52 K, 245 kPa | 0.112 W/m/K
222.52 K, 27479 kPa | 0.1198 W/m/K
222.52 K, 33833 kPa | 0.1215 W/m/K
222.53 K, 33800 kPa | 0.1213 W/m/K
222.77 K, 67930 kPa | 0.1298 W/m/K
222.78 K, 39758 kPa | 0.1234 W/m/K
222.78 K, 39765 kPa | 0.1236 W/m/K
222.78 K, 47189 kPa | 0.1249 W/m/K
222.78 K, 47193 kPa | 0.125 W/m/K
222.78 K, 54318 kPa | 0.1265 W/m/K
222.78 K, 54319 kPa | 0.1266 W/m/K
222.78 K, 61395 kPa | 0.1281 W/m/K
222.78 K, 61401 kPa | 0.1282 W/m/K
222.78 K, 67928 kPa | 0.1296 W/m/K
222.94 K, 4870 kPa | 0.113 W/m/K
222.94 K, 10017 kPa | 0.1147 W/m/K
222.94 K, 10023 kPa | 0.1147 W/m/K
222.94 K, 15762 kPa | 0.1162 W/m/K
222.94 K, 15767 kPa | 0.1163 W/m/K
222.94 K, 21269 kPa | 0.1181 W/m/K
222.94 K, 21277 kPa | 0.118 W/m/K
222.94 K, 27478 kPa | 0.1199 W/m/K
222.94 K, 27487 kPa | 0.1197 W/m/K
222.94 K, 33837 kPa | 0.1213 W/m/K
222.94 K, 33847 kPa | 0.1213 W/m/K
222.95 K, 242 kPa | 0.1115 W/m/K
222.95 K, 262 kPa | 0.1116 W/m/K
222.95 K, 4862 kPa | 0.113 W/m/K
223.19 K, 67923 kPa | 0.1295 W/m/K
223.2 K, 61398 kPa | 0.128 W/m/K
223.2 K, 67921 kPa | 0.1295 W/m/K
223.21 K, 54306 kPa | 0.1263 W/m/K
223.21 K, 61402 kPa | 0.128 W/m/K
223.22 K, 39767 kPa | 0.1231 W/m/K
223.22 K, 47186 kPa | 0.1248 W/m/K
223.22 K, 47187 kPa | 0.1248 W/m/K
223.22 K, 54313 kPa | 0.1265 W/m/K
223.23 K, 39773 kPa | 0.1231 W/m/K
223.38 K, 33868 kPa | 0.1211 W/m/K
223.39 K, 33861 kPa | 0.1211 W/m/K
223.4 K, 21286 kPa | 0.1177 W/m/K
223.4 K, 27486 kPa | 0.1196 W/m/K
223.4 K, 27487 kPa | 0.1195 W/m/K
223.41 K, 15762 kPa | 0.1159 W/m/K
223.41 K, 15769 kPa | 0.1159 W/m/K
223.41 K, 21280 kPa | 0.1178 W/m/K
223.42 K, 4862 kPa | 0.1127 W/m/K
223.42 K, 4869 kPa | 0.1127 W/m/K
223.42 K, 10011 kPa | 0.1143 W/m/K
223.42 K, 10015 kPa | 0.1145 W/m/K
223.43 K, 243 kPa | 0.1111 W/m/K
223.43 K, 251 kPa | 0.1111 W/m/K
223.65 K, 67907 kPa | 0.1291 W/m/K
223.65 K, 67916 kPa | 0.1294 W/m/K
223.66 K, 61399 kPa | 0.1279 W/m/K
223.67 K, 61396 kPa | 0.1278 W/m/K
223.68 K, 54302 kPa | 0.1262 W/m/K
223.68 K, 54305 kPa | 0.1261 W/m/K
223.69 K, 47183 kPa | 0.1247 W/m/K
223.69 K, 47193 kPa | 0.1247 W/m/K
223.7 K, 39777 kPa | 0.123 W/m/K
223.71 K, 39772 kPa | 0.1229 W/m/K
223.87 K, 33885 kPa | 0.1209 W/m/K
223.88 K, 33873 kPa | 0.1209 W/m/K
241.3 K, 9886 kPa | 0.1092 W/m/K
241.3 K, 15301 kPa | 0.1111 W/m/K
241.31 K, 9877 kPa | 0.1094 W/m/K
241.32 K, 21013 kPa | 0.1123 W/m/K
241.32 K, 21021 kPa | 0.1121 W/m/K
241.33 K, 33388 kPa | 0.115 W/m/K
241.34 K, 33390 kPa | 0.1153 W/m/K
241.35 K, 26974 kPa | 0.1134 W/m/K
241.35 K, 26975 kPa | 0.1134 W/m/K
241.35 K, 46711 kPa | 0.1187 W/m/K
241.35 K, 46714 kPa | 0.1192 W/m/K
241.36 K, 39784 kPa | 0.1173 W/m/K
241.37 K, 297 kPa | 0.1065 W/m/K and 0.1069 W/m/K
241.37 K, 4974 kPa | 0.1077 W/m/K
241.37 K, 39780 kPa | 0.1174 W/m/K
241.38 K, 4982 kPa | 0.1074 W/m/K
241.38 K, 53704 kPa | 0.1209 W/m/K
241.38 K, 53707 kPa | 0.1206 W/m/K
241.41 K, 61279 kPa | 0.1222 W/m/K
241.43 K, 68711 kPa | 0.1241 W/m/K
241.43 K, 68724 kPa | 0.1238 W/m/K
241.68 K, 15290 kPa | 0.1103 W/m/K
241.69 K, 9889 kPa | 0.1088 W/m/K
241.69 K, 9892 kPa | 0.1093 W/m/K
241.69 K, 15293 kPa | 0.1107 W/m/K
241.69 K, 21027 kPa | 0.1119 W/m/K
241.69 K, 21032 kPa | 0.1126 W/m/K
241.7 K, 33378 kPa | 0.1158 W/m/K
241.7 K, 33381 kPa | 0.1154 W/m/K
241.7 K, 46707 kPa | 0.1184 W/m/K
241.71 K, 26968 kPa | 0.1137 W/m/K
241.71 K, 26981 kPa | 0.1139 W/m/K
241.71 K, 46714 kPa | 0.1189 W/m/K
241.72 K, 39777 kPa | 0.117 W/m/K
241.73 K, 39791 kPa | 0.1169 W/m/K
241.73 K, 53687 kPa | 0.1208 W/m/K
241.73 K, 53704 kPa | 0.1206 W/m/K
241.75 K, 61249 kPa | 0.1223 W/m/K
241.75 K, 61272 kPa | 0.1223 W/m/K
241.76 K, 296 kPa | 0.1058 W/m/K
241.76 K, 303 kPa | 0.1061 W/m/K
241.76 K, 4987 kPa | 0.108 W/m/K
241.77 K, 4997 kPa | 0.1079 W/m/K
241.77 K, 68669 kPa | 0.1236 W/m/K
241.78 K, 68692 kPa | 0.1241 W/m/K
